Assay [1] addresses T1, androgen receptor (AR) (Mus musculus, UniProt P19091).
T1 construct: in the L929 cells which express the AR but not the PR; endogenous in cells; host or cells: L929 cells
T1 sequence (P19091 1-899): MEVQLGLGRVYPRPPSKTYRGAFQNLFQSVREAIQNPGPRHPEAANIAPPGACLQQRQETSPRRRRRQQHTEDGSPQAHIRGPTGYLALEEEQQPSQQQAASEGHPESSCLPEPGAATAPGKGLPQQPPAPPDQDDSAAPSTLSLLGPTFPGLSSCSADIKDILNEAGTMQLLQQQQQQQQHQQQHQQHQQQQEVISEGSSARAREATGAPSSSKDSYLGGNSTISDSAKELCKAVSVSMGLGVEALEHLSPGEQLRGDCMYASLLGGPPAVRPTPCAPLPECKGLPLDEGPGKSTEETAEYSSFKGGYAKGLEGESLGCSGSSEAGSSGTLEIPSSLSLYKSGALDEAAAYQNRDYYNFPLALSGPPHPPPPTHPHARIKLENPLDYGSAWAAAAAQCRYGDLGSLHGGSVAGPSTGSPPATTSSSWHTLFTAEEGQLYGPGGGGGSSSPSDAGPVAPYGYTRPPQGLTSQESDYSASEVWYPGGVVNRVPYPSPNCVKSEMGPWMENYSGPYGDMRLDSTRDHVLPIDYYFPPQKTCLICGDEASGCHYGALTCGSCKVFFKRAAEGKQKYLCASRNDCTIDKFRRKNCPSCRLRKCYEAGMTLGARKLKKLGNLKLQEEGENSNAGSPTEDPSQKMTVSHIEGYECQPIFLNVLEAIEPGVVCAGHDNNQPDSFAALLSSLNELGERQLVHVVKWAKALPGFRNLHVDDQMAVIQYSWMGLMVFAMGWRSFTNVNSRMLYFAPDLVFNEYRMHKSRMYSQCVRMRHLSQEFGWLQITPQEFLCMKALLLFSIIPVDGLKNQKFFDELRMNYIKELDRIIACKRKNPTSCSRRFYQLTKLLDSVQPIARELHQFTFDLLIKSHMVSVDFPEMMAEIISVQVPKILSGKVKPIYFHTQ
The assay is described as follows: Anti-androgenic activity, PRE-tk-luciferase reporter in L929 cells co-treated with 3 nM DHT. The assay is classed as cell-based. The conditions noted are these: nine point dose response. As to the method:
(§1) The androgen receptor (AR) agonistic and antagonistic activity of the compositions of the invention in the L929 cells which express the AR but not the PR was evaluated as described in Zhang et al., Steroids, 65(10-11): 637-643 (October-November 2000).
(§2) Cells were plated in 96-well plates at 25,000 cells/well in DMEM (BioWhittaker) with 10% (v/v) fetal bovine serum (FBS). The next day, cells were infected with the adenovirus PRE-tk-luciferase reporter construct (2×10^9 pfu/ml particles) and kept in DMEM containing 10% charcoal stripped FBS for an additional 24 hours. […] To test the anti-androgenic activity, cells were co-treated with 3 nM DHT. Luciferase activity was measured 24 hours following the treatment.
Background: A reporter such as luciferase makes a cellular process visible.

For assay [2], the target named is T1, androgen receptor (AR). The assay is described as follows: AR agonistic activity, PRE-tk-luciferase reporter in L929 cells. The assay is classed as cell-based. The conditions noted are these: at the maximum concentration tested (i.e., 10 nM). As to the method: as §1, §2

Regarding `Cn1c(C#N)ccc1-c1ccc2c(c1)C1(CCCCC1)C(=NC#N)N2` [5′-(5-Cyano-1-methyl-1H-pyrrol-2-yl)spiro[cyclohexane-1,3′-[3H]indol]-2′-ylidenecyanamide], the antagonistic activity entry on androgen receptor (AR) [1] is listed as “significant antagonistic activity”. The agonistic activity result on androgen receptor (AR) [2] is listed as “only marginal agonistic activity”.

For the origin of these results see patent publication US8242098B2, “Methods of treating hormone-related conditions using thio-oxindole derivatives” (Wyeth LLC, priority 2002, dated 2012).
